# Reference: paper PMC2832311 (Journal of medicinal chemistry, 2009)
# “Also recorded” adds a separate entry of the source. Where two headings read alike, the source gives them in different places.
# Legend:
# C57BL/6J male mice = assay: Mouse forced swim test; assay type: in vivo; details: 30 min prior to testing
# [1] = molecular target: T1, human 5-HT2C (INI) receptor (Homo sapiens, UniProt P28335); assay: Calcium flux assay, 5-HT2C; details: for EC50: NA: Emax ≤ 12%; for Emax: read-out: 5-HT2C Emax, percent of maximal activation by 5-HT; for 5-HT2C agonist efficacy (in words): calcium flux; for Selectivity 2A/2C / Selectivity 2B/2C: EC50 ratio
# T1 sequence (P28335 33-458): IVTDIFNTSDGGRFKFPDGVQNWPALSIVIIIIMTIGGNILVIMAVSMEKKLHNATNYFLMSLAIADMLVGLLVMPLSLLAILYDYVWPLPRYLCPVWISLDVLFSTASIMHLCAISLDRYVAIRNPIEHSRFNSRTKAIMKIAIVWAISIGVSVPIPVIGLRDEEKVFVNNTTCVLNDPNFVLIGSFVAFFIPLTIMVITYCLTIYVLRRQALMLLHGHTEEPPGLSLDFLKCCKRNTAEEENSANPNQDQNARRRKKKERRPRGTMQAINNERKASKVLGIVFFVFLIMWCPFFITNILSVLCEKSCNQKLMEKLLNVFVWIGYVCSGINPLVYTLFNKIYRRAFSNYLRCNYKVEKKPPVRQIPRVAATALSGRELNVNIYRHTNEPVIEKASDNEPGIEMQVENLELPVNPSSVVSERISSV
# human 5-HT2A receptor = human 5-HT2A receptor (Homo sapiens, UniProt P28223); assay: Calcium flux assay, 5-HT2A; details: for EC50: 5-HT2A EC50, HEK-293, NA: Emax ≤ 12%; for Emax: read-out: 5-HT2A Emax, percent of maximal activation by 5-HT
# Chain of human 5-HT2A receptor (P28223 whole entry): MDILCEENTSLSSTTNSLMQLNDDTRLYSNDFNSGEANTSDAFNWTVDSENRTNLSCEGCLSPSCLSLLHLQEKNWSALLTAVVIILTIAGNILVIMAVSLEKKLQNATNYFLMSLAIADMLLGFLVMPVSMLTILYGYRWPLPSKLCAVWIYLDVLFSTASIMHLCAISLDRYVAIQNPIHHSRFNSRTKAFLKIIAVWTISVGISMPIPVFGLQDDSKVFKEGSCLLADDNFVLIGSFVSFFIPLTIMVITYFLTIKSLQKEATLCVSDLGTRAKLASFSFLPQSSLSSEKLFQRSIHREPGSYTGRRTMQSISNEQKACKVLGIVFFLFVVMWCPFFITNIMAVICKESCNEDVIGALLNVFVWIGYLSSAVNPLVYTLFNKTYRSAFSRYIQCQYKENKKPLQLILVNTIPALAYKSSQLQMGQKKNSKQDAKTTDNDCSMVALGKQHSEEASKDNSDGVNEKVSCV
# human 5-HT2B receptor = human 5-HT2B receptor (Homo sapiens, UniProt P41595); assay: Calcium flux assay, 5-HT2B; details: for EC50: 5-HT2B EC50, HEK-293, NA: Emax ≤ 12%; for Emax: read-out: 5-HT2B Emax, percent of maximal activation by 5-HT
# Chain of human 5-HT2B receptor (P41595 whole entry): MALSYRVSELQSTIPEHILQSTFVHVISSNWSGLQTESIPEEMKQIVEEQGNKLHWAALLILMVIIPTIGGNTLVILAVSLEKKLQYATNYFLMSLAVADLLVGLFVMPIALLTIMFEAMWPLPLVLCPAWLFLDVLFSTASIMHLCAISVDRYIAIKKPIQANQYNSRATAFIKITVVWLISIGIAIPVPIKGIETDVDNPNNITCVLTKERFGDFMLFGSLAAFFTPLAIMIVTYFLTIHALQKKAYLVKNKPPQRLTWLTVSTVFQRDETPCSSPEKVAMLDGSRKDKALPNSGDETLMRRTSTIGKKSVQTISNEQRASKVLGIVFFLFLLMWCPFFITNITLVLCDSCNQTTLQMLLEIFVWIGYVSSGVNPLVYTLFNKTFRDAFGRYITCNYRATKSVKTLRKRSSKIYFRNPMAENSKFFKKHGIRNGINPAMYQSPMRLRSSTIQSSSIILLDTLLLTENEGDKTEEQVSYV
# MAO = details: tryptamine potentiation model; cited from earlier work
# [2] = Table 2 section 1 (independent campaign)
# [3] = Table 2 section 2 (independent campaign)
# [4] = 5-HT2C EC50, HEK-293, Table 2 section 1
# [5] = 5-HT2C EC50, HEK-293, Table 2 section 4
# [6] = 5-HT2C EC50, HEK-293, Table 2 section 2
smiles,measurement,setting,value
"Cc1cccc([C@H]2C[C@@H]2CN)c1.Cl (relative stereo) [compound 37, trans-[2-(3-Methylphenyl)cyclopropyl]methylamine Hydrochloride]",immobility time (in words),"C57BL/6J male mice; 10–60 mg/kg i.p., vs vehicle",decreased immobility time; also recorded: significant decrease in immobility; also recorded: dose-dependent decrease in immobility time
"CC(C)N[C@@H]1C[C@H]1c1ccccc1 (relative stereo) [compound 18, trans-N-Isopropyl-(2-phenylcyclopropyl)amine]",EC50,"[1]; 5-HT2C EC50, HEK-293 stably transfected, Table 1 section 2",3420 nM
same,Emax,[1]; Table 1 section 2,18%
"Cl.NC[C@H]1C[C@@H]1c1ccccc1 [(+)-14a, (+)-trans-(S,S)-(2-Phenylcyclopropyl)methylamine Hydrochloride]",5-HT2C agonist efficacy (in words),[1],full agonists
"N[C@@H]1C[C@H]1c1ccccc1 (racemic) [compound 9, tranylcypromine, reference compound]",5-HT2C agonist efficacy (in words),[1],full agonists
"Cl.NC[C@H]1C[C@@H]1c1ccccc1F (relative stereo) [compound 27, trans-[2-(2-Fluorophenyl)cyclopropyl]methylamine Hydrochloride]",EC50,human 5-HT2A receptor; [2],> 1000 nM
same,EC50,human 5-HT2A receptor; [3],942 nM
same,EC50,human 5-HT2A receptor; Table 2 section 4 (independent campaign),681 nM
same,Emax,human 5-HT2A receptor; Table 2 section 2,79%
same,Emax,human 5-HT2A receptor; Table 2 section 4,62%
same,EC50,human 5-HT2B receptor; Table 2 section 1,1550 nM
same,EC50,human 5-HT2B receptor; Table 2 section 2,199 nM
same,Emax,human 5-HT2B receptor; Table 2 section 2,89%
same,Emax,human 5-HT2B receptor; Table 2 section 4,84%
same,EC50,[1]; [4],37 nM
same,EC50,[1]; [5],33 nM
same,Selectivity 2A/2C,[1]; Table 2 section 1,> 27
same,Selectivity 2B/2C,[1]; Table 2 section 1,42
same,Selectivity 2A/2C,[1]; Table 2 section 2,32
same,Selectivity 2B/2C,[1]; Table 2 section 2,6.8
same,Emax,[1]; Table 2 section 1,94%
"Cl.NC[C@H]1C[C@@H]1c1cccc(F)c1 (relative stereo) [compound 34, trans-[2-(3-Fluorophenyl)cyclopropyl]methylamine Hydrochloride]",EC50,human 5-HT2A receptor; [2],1770 nM
same,EC50,human 5-HT2A receptor; [3],733 nM
same,Emax,human 5-HT2A receptor; Table 2 section 4,73%
same,EC50,human 5-HT2B receptor; Table 2 section 1,51 nM
same,EC50,human 5-HT2B receptor; Table 2 section 2,13 nM
same,Emax,human 5-HT2B receptor; Table 2 section 1,106%
same,Emax,human 5-HT2B receptor; Table 2 section 2,96%
same,EC50,[1]; [4],3.9 nM
same,Selectivity 2A/2C,[1]; Table 2 section 1,450
same,Selectivity 2B/2C,[1]; Table 2 section 1,13
same,Selectivity 2A/2C,[1]; Table 2 section 2,225
same,Selectivity 2B/2C,[1]; Table 2 section 2,4.0
same,Emax,[1]; Table 2 section 2,97%
same,Emax,[1]; Table 2 section 4,96%
"Cl.NC[C@@H]1C[C@H]1c1ccccc1Br (relative stereo) [compound 29, trans-[2-(2-Bromophenyl)cyclopropyl]methylamine Hydrochloride]",EC50,human 5-HT2A receptor; [2],585 nM
same,EC50,human 5-HT2B receptor; Table 2 section 1,154 nM
same,EC50,[1]; [4],2.8 nM
same,Selectivity 2A/2C,[1]; Table 2 section 1,206
same,Selectivity 2B/2C,[1]; Table 2 section 1,54
same,Emax,[1]; Table 2 section 1,93%
"Cl.NC[C@H]1C[C@@H]1c1ccc(C(F)(F)F)cc1 (relative stereo) [compound 45, trans-[2-(4-Trifluoromethylphenyl)cyclopropyl]methylamine Hydrochloride]",Selectivity 2B/2C,[1]; Table 2 section 1,> 1
"CN[C@H]1CC[C@@H](c2ccc(Cl)c(Cl)c2)c2ccccc21 [compound 92, sertraline, reference compound]",immobility time (in words),"C57BL/6J male mice; 10 mg/kg i.p., positive control, p < 0.001",significant decrease in immobility; also recorded: significantly reduced the immobility time
"Cl.NC[C@@H]1C[C@H]1c1ccccc1 [(−)-14a, (−)-trans-(R,R)-(2-Phenylcyclopropyl)methylamine Hydrochloride]",Selectivity 2A/2C,[1]; Table 1 section 2,> 10
"Cl.NC[C@@H]1C[C@H]1c1ccccc1 (relative stereo) [14a, trans-(2-Phenylcyclopropyl)methylamine Hydrochloride]",MAO inhibitory activity,MAO,devoid of MAO inhibitory activity
same,5-HT2C agonist efficacy (in words),[1],full agonists
"C[C@H]1CNCCc2ccc(Cl)cc21 [compound 7, (1R)-8-chloro-2,3,4,5-tetrahydro-1-methyl-1H-3-benzazepine, reference compound]",Emax,human 5-HT2A receptor; Table 2 section 4,33%
same,Emax,[1]; Table 2 section 4,96%
"Cl.NC[C@H]1C[C@@H]1c1ccc(F)cc1 (relative stereo) [compound 41, trans-[2-(4-Fluorophenyl)cyclopropyl]methylamine Hydrochloride]",EC50,human 5-HT2A receptor; [2],1100 nM
same,EC50,human 5-HT2A receptor; [3],646 nM
same,Emax,human 5-HT2A receptor; Table 2 section 2,80%
same,Emax,human 5-HT2A receptor; Table 2 section 4,68%
same,EC50,human 5-HT2B receptor; Table 2 section 1,312 nM
same,EC50,human 5-HT2B receptor; Table 2 section 2,57 nM
same,Emax,human 5-HT2B receptor; Table 2 section 1,95%
same,EC50,[1]; [6],8.4 nM
same,EC50,[1]; [5],11 nM
same,Selectivity 2A/2C,[1]; Table 2 section 1,202
same,Selectivity 2B/2C,[1]; Table 2 section 1,57
same,Selectivity 2A/2C,[1]; Table 2 section 2,77
same,Selectivity 2B/2C,[1]; Table 2 section 2,6.8
same,Emax,[1]; Table 2 section 4,96%
"Cl.NC[C@H]1C[C@@H]1c1ccccc1Cl (relative stereo) [compound 28, trans-[2-(2-Chlorophenyl)cyclopropyl]methylamine Hydrochloride]",EC50,human 5-HT2A receptor; [2],403 nM
same,Emax,human 5-HT2A receptor; Table 2 section 2,87%
same,EC50,human 5-HT2B receptor; Table 2 section 1,84 nM
same,EC50,[1]; [6],5.5 nM
same,Selectivity 2A/2C,[1]; Table 2 section 1,79
same,Selectivity 2B/2C,[1]; Table 2 section 1,16
same,Emax,[1]; Table 2 section 1,98%
